Assay results reported in patent US5733924A, “DC 107 derivatives and treatment methods” (Kyowa Hakko Kogyo Co., Ltd., priority 1995, dated 1998).

What follows are compounds tested on P388 Leukemia (assay: Antitumor activity against P388 leukemia in mice (increased life span)). Conditions: Mus musculus, P388, ip, 720 h, read-out: ILS (increased life span).
Assay type: in vivo, CDF1 mice
Experimental: Ascites were collected from the abdominal cavity of P388 ascites tumor-bearing cancer mice (DBA/2) on the 7th day after transplantation. A number of P388 cells in the ascites was counted, and a tumor cell floating liquid of 5×10^6 cells/ml was prepared using a physiological saline solution. Then, 0.2 ml of the solution containing 1×10^6 cells was transplanted into the abdominal cavity of CDF1 mice having a body weight of from 20 to 25 g.
The effect of the test compound was determined in terms of the ratio of average survival days of the group administered with the test compound to average survival days of the control group (non-medicated group) (i.e., an increased life span, ILS%).
Work on `C/C1=C\C(O)C(=O)/C=C/C=C\c2csc(n2)C(C)N2C(=O)CC(C(C)(O)C(=O)SCc3oc(=O)oc3C)(CC1)[S+]2[O-]` (centres unmarked) [Compound 35] yielded an ILS at 2 mg/kg of 65%.
Compound `C/C1=C\C(OC(=O)OCC2c3ccccc3-c3ccccc32)C(=O)/C=C/C=C\c2csc(n2)C(C)N2C(=O)CC(C(C)(O)C(=O)SCc3oc(=O)oc3C)(CC1)[S+]2[O-]` (centres unmarked) [Compound 57] has an ILS at 4 mg/kg of 53%.
With `C/C1=C\C(O)C(=O)/C=C/C=C\c2csc(n2)C(C)N2C(=O)CC(C(C)(O)C(=O)SCOC(=O)C(C)(C)C)(CC1)[S+]2[O-]` (centres unmarked) [Compound 34] the ILS at 2 mg/kg was 48%.
Work on `C/C1=C\C(O)C(=NOCc2ccccc2)/C=C/C=C\c2csc(n2)C(C)N2C(=O)CC(C(C)(O)C(=O)SCc3oc(=O)oc3C)(CC1)[S+]2[O-]` (single isomer, unassigned) [Compound 73] yielded an ILS at 4 mg/kg of 43%.
Work on `C/C1=C\C(OC(=O)Oc2ccccc2)C(=O)/C=C/C=C\c2csc(n2)C(C)N2C(=O)CC(C(C)(O)C(=O)SCc3oc(=O)oc3C)(CC1)[S+]2[O-]` (centres unmarked) [Compound 55] yielded an ILS at 1 mg/kg of 40%.
`C/C1=C\C(OC(=O)C2CCCCC2)C(=O)/C=C/C=C\c2csc(n2)C(C)N2C(=O)CC(C(C)(O)C(=O)SCc3oc(=O)oc3C)(CC1)[S+]2[O-]` (centres unmarked) [Compound 48] gave an ILS at 8 mg/kg of 47%.
For `C/C1=C\C(OC(=O)OCc2ccccc2)C(=O)/C=C/C=C\c2csc(n2)C(C)N2C(=O)CC(C(C)(O)C(=O)SCc3oc(=O)oc3C)(CC1)[S+]2[O-]` (centres unmarked) [Compound 56], the ILS at 1 mg/kg was 63%.
`CC1=CC(OC(=O)[C@H](C)NC(=O)OCc2ccccc2)C(=O)C=CC=Cc2csc(n2)C(C)N2C(=O)CC(C(C)(O)C(=O)SCc3oc(=O)oc3C)(CC1)[S+]2[O-]` (some centres unmarked) [Compound 163] showed an ILS at 2 mg/kg of 46%.
For `COC1(OC2C=C(C)CCC3(C(C)(O)C(=O)SCc4oc(=O)oc4C)CC(=O)N(C(C)c4nc(cs4)C=CC=CC2=O)[S+]3[O-])CC[S+]([O-])CC1` (centres unmarked) [Compound 128], the ILS at 4 mg/kg was 84%.

Same assay, conditions: Mus musculus, P388, ip, 720 h; 1.0 mg/kg, single i.p. 24 hours after transplantation, CDF1 mice, 30 days observation; read-out: ILS (increased life span)
In the case of `C/C1=C\C(OC(=O)OCc2ccccc2)C(=O)/C=C/C=C\c2csc(n2)C(C)NC(=O)CC2(CC1)[S+]([O-])SC(=O)C2(C)O` (centres unmarked) [Compound 14], the ILS at 1 mg/kg was 42%.
For `COC1(OC2C=C(C)CCC3(C(C)(O)C(=O)SCc4oc(=O)oc4C)CC(=O)N(C(C)c4nc(cs4)C=CC=CC2=O)[S+]3[O-])CCS(=O)(=O)CC1` (centres unmarked) [Compound 129], the ILS at 1 mg/kg was 64%.

Same assay, conditions: Mus musculus, P388, ip, 720 h; 2.0 mg/kg, single i.p. 24 hours after transplantation, CDF1 mice, 30 days observation; read-out: ILS (increased life span)
Compound `CCOC(=O)OC1/C=C(\C)CCC2(C(C)(O)C(=O)SCOC(=O)C(C)(C)C)CC(=O)N(C(C)c3nc(cs3)/C=C\C=C\C1=O)[S+]2[O-]` (centres unmarked) [Compound 41] has an ILS at 2 mg/kg of 40%.
`CC1=CC(OC(=O)CO)C(=O)C=CC=Cc2csc(n2)C(C)N2C(=O)CC(C(C)(O)C(=O)SCc3oc(=O)oc3C)(CC1)[S+]2[O-]` (centres unmarked) [Compound 154] gave an ILS at 2 mg/kg of 48%.
Work on `C/C1=C\C(OC(=O)OCC(C)C)C(=O)/C=C/C=C\c2csc(n2)C(C)NC(=O)CC2(CC1)[S+]([O-])SC(=O)C2(C)O` (centres unmarked) [Compound 11] yielded an ILS at 2 mg/kg of 50%.
`CC1=CC(OC(=O)c2cccnc2)C(=O)C=CC=Cc2csc(n2)C(C)N2C(=O)CC(C(C)(O)C(=O)SCc3oc(=O)oc3C)(CC1)[S+]2[O-]` (centres unmarked) [Compound 144] showed an ILS at 2 mg/kg of 49%.
In the case of `C/C1=C\C(OC(=O)CNC(=O)OC(C)(C)C)C(=O)/C=C/C=C\c2csc(n2)C(C)NC(=O)CC2(CC1)[S+]([O-])SC(=O)C2(C)O` (centres unmarked) [Compound 96], the ILS at 2 mg/kg was 46%.
Compound `CCOC(=O)OC1/C=C(\C)CCC2(C(C)(O)C(=O)SCc3oc(=O)oc3C)CC(=O)N(C(C)c3nc(cs3)/C=C\C=C\C1=O)[S+]2[O-]` (centres unmarked) [Compound 53] has an ILS at 2 mg/kg of 43%.
`C/C1=C\C(OC(=O)c2cnc3ccccc3n2)C(=O)/C=C/C=C\c2csc(n2)C(C)NC(=O)CC2(CC1)[S+]([O-])SC(=O)C2(C)O` (centres unmarked) [Compound 9] gave an ILS at 2 mg/kg of 44%.
Compound `CC1=CC(OC(=O)Cc2cccnc2)C(=O)C=CC=Cc2csc(n2)C(C)N2C(=O)CC(C(C)(O)C(=O)SCc3oc(=O)oc3C)(CC1)[S+]2[O-]` (centres unmarked) [Compound 147] has an ILS at 2 mg/kg of 60%.

Same assay, conditions: Mus musculus, P388, ip, 720 h; 4.0 mg/kg, single i.p. 24 hours after transplantation, CDF1 mice, 30 days observation; read-out: ILS (increased life span)
`CC1=CC(OC(=O)CN(C)C(=O)OC(C)(C)C)C(=O)C=CC=Cc2csc(n2)C(C)N2C(=O)CC(C(C)(O)C(=O)SCc3oc(=O)oc3C)(CC1)[S+]2[O-]` (centres unmarked) [Compound 161] showed an ILS at 4 mg/kg of 65%.
`C/C1=C\C(OC(=O)CN(C)C(=O)OCc2ccccc2)C(=O)/C=C/C=C\c2csc(n2)C(C)NC(=O)CC2(CC1)[S+]([O-])SC(=O)C2(C)O` (centres unmarked) [Compound 101] gave an ILS at 4 mg/kg of 48%.
For `CC1=CC(OC(=O)C2CCC(=O)N2)C(=O)C=CC=Cc2csc(n2)C(C)N2C(=O)CC(C(C)(O)C(=O)SCc3oc(=O)oc3C)(CC1)[S+]2[O-]` (centres unmarked) [Compound 149], the ILS at 4 mg/kg was 55%.
Work on `CC1=CC(OC(=O)CNC(=O)[C@H](C)NC(=O)OCc2ccccc2)C(=O)C=CC=Cc2csc(n2)C(C)N2C(=O)CC(C(C)(O)C(=O)SCc3oc(=O)oc3C)(CC1)[S+]2[O-]` (some centres unmarked) [Compound 168] yielded an ILS at 4 mg/kg of 58%.
`CC(=O)NCC(=O)OC1C=C(C)CCC2(C(C)(O)C(=O)SCc3oc(=O)oc3C)CC(=O)N(C(C)c3nc(cs3)C=CC=CC1=O)[S+]2[O-]` (centres unmarked) [Compound 160] gave an ILS at 4 mg/kg of 62%.
`C/C1=C\C(OC(=O)[C@H](C)NC(=O)OC(C)(C)C)C(=O)/C=C/C=C\c2csc(n2)C(C)NC(=O)CC2(CC1)[S+]([O-])SC(=O)C2(C)O` (some centres unmarked) [Compound 102] showed an ILS at 4 mg/kg of 49%.
With `C/C1=C\C(OC(=O)CCNC(=O)OCc2ccccc2)C(=O)/C=C/C=C\c2csc(n2)C(C)NC(=O)CC2(CC1)[S+]([O-])SC(=O)C2(C)O` (centres unmarked) [Compound 105] the ILS at 4 mg/kg was 53%.

Same assay, conditions: Mus musculus, P388, ip, 720 h; 8.0 mg/kg, single i.p. 24 hours after transplantation, CDF1 mice, 30 days observation; read-out: ILS (increased life span)
`COC1(OC2/C=C(\C)CCC3(CC(=O)NC(C)c4nc(cs4)/C=C\C=C\C2=O)[S+]([O-])SC(=O)C3(C)O)CCSCC1` (centres unmarked) [Compound 92] was tested, and the ILS at 8 mg/kg was 48%.
`COC1(OC2C=C(C)CCC3(C(C)(O)C(=O)SCc4oc(=O)oc4C)CC(=O)N(C(C)c4nc(cs4)C=CC=CC2=O)[S+]3[O-])CCN(c2ccccc2)CC1` (centres unmarked) [Compound 131] showed an ILS at 8 mg/kg of 60%.
Compound `CC1=CC(OC(=O)CNC=O)C(=O)C=CC=Cc2csc(n2)C(C)N2C(=O)CC(C(C)(O)C(=O)SCc3oc(=O)oc3C)(CC1)[S+]2[O-]` (centres unmarked) [Compound 159] has an ILS at 8 mg/kg of 50%.
`C/C1=C\C(OC(=O)CNC(=O)CCNC(=O)OC(C)(C)C)C(=O)/C=C/C=C\c2csc(n2)C(C)NC(=O)CC2(CC1)[S+]([O-])SC(=O)C2(C)O` (centres unmarked) [Compound 112] showed an ILS at 8 mg/kg of 67%.
In the case of `CC1=CC(OC(=O)[C@@H]2CCCN2C(=O)OC(C)(C)C)C(=O)C=CC=Cc2csc(n2)C(C)N2C(=O)CC(C(C)(O)C(=O)SCc3oc(=O)oc3C)(CC1)[S+]2[O-]` (some centres unmarked) [Compound 148], the ILS at 8 mg/kg was 49%.
`CC1=CC(OC(=O)CNC(=O)C(CC(C)C)NC(=O)OCc2ccccc2)C(=O)C=CC=Cc2csc(n2)C(C)N2C(=O)CC(C(C)(O)C(=O)SCc3oc(=O)oc3C)(CC1)[S+]2[O-]` (centres unmarked) [Compound 173] showed an ILS at 8 mg/kg of 64%.
In the case of `C/C1=C\C(OC(=O)CNC(=O)[C@H](C)NC(=O)OCc2ccccc2)C(=O)/C=C/C=C\c2csc(n2)C(C)NC(=O)CC2(CC1)[S+]([O-])SC(=O)C2(C)O` (some centres unmarked) [Compound 110], the ILS at 8 mg/kg was 58%.
For `COC1(OC2/C=C(\C)CCC3(CC(=O)NC(C)c4nc(cs4)/C=C\C=C\C2=O)[S+]([O-])SC(=O)C3(C)O)CCCCC1` (centres unmarked) [Compound 91], the ILS at 8 mg/kg was 48%.
`C/C1=C\C(OC(=O)CNC(=O)C(CC(C)C)NC(=O)OCc2ccccc2)C(=O)/C=C/C=C\c2csc(n2)C(C)NC(=O)CC2(CC1)[S+]([O-])SC(=O)C2(C)O` (centres unmarked) [Compound 115] showed an ILS at 8 mg/kg of 67%.
In the case of `CC1=CC(OC(=O)CNC(=O)OCc2ccccc2)C(=O)C=CC=Cc2csc(n2)C(C)N2C(=O)CC(C(C)(O)C(=O)SCc3oc(=O)oc3C)(CC1)[S+]2[O-]` (centres unmarked) [Compound 157], the ILS at 8 mg/kg was 98%.
For `CC1=CC(OC(=O)CNC(=O)CNC(=O)OCc2ccccc2)C(=O)C=CC=Cc2csc(n2)C(C)N2C(=O)CC(C(C)(O)C(=O)SCc3oc(=O)oc3C)(CC1)[S+]2[O-]` (centres unmarked) [Compound 166], the ILS at 8 mg/kg was 64%.

Same assay, conditions: Mus musculus, P388, ip, 720 h; 16 mg/kg, single i.p. 24 hours after transplantation, CDF1 mice, 30 days observation
`CC1=CC(OC(=O)CNC(=O)CCCNC(=O)OCc2ccccc2)C(=O)C=CC=Cc2csc(n2)C(C)N2C(=O)CC(C(C)(O)C(=O)SCc3oc(=O)oc3C)(CC1)[S+]2[O-]` (centres unmarked) [Compound 171] gave an ILS at 16 mg/kg of 63%.
`CC1=CC(OC(=O)CNC(=O)CCNC(=O)OCc2ccccc2)C(=O)C=CC=Cc2csc(n2)C(C)N2C(=O)CC(C(C)(O)C(=O)SCc3oc(=O)oc3C)(CC1)[S+]2[O-]` (centres unmarked) [Compound 169] was tested, and the ILS at 16 mg/kg was 91%.
In the case of `C/C1=C\C(OC(=O)CCNC(=O)CNC(=O)OCc2ccccc2)C(=O)/C=C/C=C\c2csc(n2)C(C)NC(=O)CC2(CC1)[S+]([O-])SC(=O)C2(C)O` (centres unmarked) [Compound 118], the ILS at 16 mg/kg was 71%.
With `CC1=CC(OC(=O)CCNC(=O)CNC(=O)OCc2ccccc2)C(=O)C=CC=Cc2csc(n2)C(C)N2C(=O)CC(C(C)(O)C(=O)SCc3oc(=O)oc3C)(CC1)[S+]2[O-]` (centres unmarked) [Compound 176] the ILS at 16 mg/kg was 75%.
In the case of `C/C1=C\C(OC(=O)CCNC(=O)CCNC(=O)OCc2ccccc2)C(=O)/C=C/C=C\c2csc(n2)C(C)NC(=O)CC2(CC1)[S+]([O-])SC(=O)C2(C)O` (centres unmarked) [Compound 119], the ILS at 16 mg/kg was 63%.
Compound `CC1=CC(OC(=O)CN(C)C(=O)CCNC(=O)OCc2ccccc2)C(=O)C=CC=Cc2csc(n2)C(C)N2C(=O)CC(C(C)(O)C(=O)SCc3oc(=O)oc3C)(CC1)[S+]2[O-]` (centres unmarked) [Compound 175] has an ILS at 16 mg/kg of 65%.

Same assay, conditions: Mus musculus, P388, ip, 720 h; 32 mg/kg, single i.p. 24 hours after transplantation, CDF1 mice, 30 days observation
With `CC1=CC(OC(=O)CCNC(=O)CCNC(=O)OCc2ccccc2)C(=O)C=CC=Cc2csc(n2)C(C)N2C(=O)CC(C(C)(O)C(=O)SCc3oc(=O)oc3C)(CC1)[S+]2[O-]` (centres unmarked) [Compound 177] the ILS at 32 mg/kg was 52%.
